These results are taken from patent US11584735B2, “Solid forms of a plasma kallikrein inhibitor and salts thereof” (KALVISTA PHARMACEUTICALS LIMITED, priority 2017, dated 2023).

One data set has as its system diabetic rats. The settings on record: cited from earlier work.
A further data set has as its system rats. The settings on record: systemic administration; cited from earlier work.
The target in the next data set is Human KLK1 (Homo sapiens (Human), UniProt P06870). As to the kind of experiment: Determination of the IC50 for KLK1. The format is biochemical. The settings on record: 25° C., substrate H-DVal-Leu-Arg-AFC. As to the method: KLK1 inhibitory activity in vitro was determined using standard published methods (see e.g. Johansen et al., Int. J. Tiss. Reac. 1986, 8, 185; Shori et al., Biochem. Pharmacol., 1992, 43, 1209; Sturzebecher et al., Biol. Chem. Hoppe-Seyler, 1992, 373, 1025). Human KLK1 (Callbiochem) was incubated at 25° C. with the fluorogenic substrate H-DVal-Leu-Arg-AFC and various concentrations of the test compound. Residual enzyme activity (initial rate of reaction) was determined by measuring the change in optical absorbance at 410 nm and the IC50 value for the test compound was determined.
Human KLK1, sequence (P06870 25-262): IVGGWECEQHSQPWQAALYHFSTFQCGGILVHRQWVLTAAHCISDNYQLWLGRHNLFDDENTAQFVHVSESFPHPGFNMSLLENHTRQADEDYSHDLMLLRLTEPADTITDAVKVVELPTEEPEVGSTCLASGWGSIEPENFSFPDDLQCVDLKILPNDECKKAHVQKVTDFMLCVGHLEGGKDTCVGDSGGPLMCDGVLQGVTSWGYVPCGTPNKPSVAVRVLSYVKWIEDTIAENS

A further data set has as its target Human FXIa (Homo sapiens (Human), UniProt P03951). Put plainly: Determination of the % inhibition / IC50 for FXIa. The class given is biochemical. The settings on record: 25° C., substrate Z-Gly-Pro-Arg-AFC.
A further data set deals with Human Factor XIIa (Homo sapiens (Human), UniProt P00748). Put plainly: Determination of the IC50 for FXIIa. The settings on record: 25° C., substrate H-DPro-Phe-Arg-AFC. The class given is biochemical. As to the method:
Factor XIIa inhibitory activity in vitro was determined using standard published methods (see e.g. Shori et al., Biochem. Pharmacol., 1992, 43, 1209; Baeriswyl et al., ACS Chem. Biol., 2015, 10 (8) 1861; Bouckaert et al., European Journal of Medicinal Chemistry 110 (2016) 181). Human Factor XIIa (Enzyme Research Laboratories) was incubated at 25° C. with the fluorogenic substrate H-DPro-Phe-Arg-AFC and various concentrations of the test compound. Residual enzyme activity (initial rate of reaction) was determined by measuring the […] and the IC50 value for the test compound was determined.

In another data set the target is trypsin. As to the kind of experiment: Enzyme selectivity: trypsin. The class given is biochemical, human. The settings on record: substrate at Km concentration.
Data set [1] in a line: Metabolic stability in human liver microsomes. The format is in vitro ADME. To be noted: human liver microsomes 1 mg/mL, 5 μM test compound, 37° C. As to the method: The metabolic stability was determined using standard published methods (Obach RS (1999) Drug Metab Dispos 27(11); 1350-135). Human liver microsomes (1 mg/mL; Corning) were incubated with 5 μM test compound at 37° C. on a shaking platform (150 rpm). Samples were taken at 0 and 60 min. The percentage test compound remaining at 60 minutes was determined by ratio of LCMS peak areas.
On the technique in general: Microsomes from liver hold many membrane-bound enzymes, among them those of drug oxidation.

The target in another data set is plasmin (Homo sapiens (Human), UniProt P00747). The settings on record: read-out: IC50 Plasmin; substrate at Km concentration.
plasmin, sequence (P00747 581-810): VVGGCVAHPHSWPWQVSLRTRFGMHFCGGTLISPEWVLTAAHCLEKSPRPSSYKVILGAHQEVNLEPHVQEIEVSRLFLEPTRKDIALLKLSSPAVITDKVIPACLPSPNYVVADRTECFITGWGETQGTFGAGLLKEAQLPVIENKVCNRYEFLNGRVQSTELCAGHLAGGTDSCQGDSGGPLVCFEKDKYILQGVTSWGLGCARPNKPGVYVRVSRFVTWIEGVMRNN
plasmin, sequence (P00747 97-580 partner): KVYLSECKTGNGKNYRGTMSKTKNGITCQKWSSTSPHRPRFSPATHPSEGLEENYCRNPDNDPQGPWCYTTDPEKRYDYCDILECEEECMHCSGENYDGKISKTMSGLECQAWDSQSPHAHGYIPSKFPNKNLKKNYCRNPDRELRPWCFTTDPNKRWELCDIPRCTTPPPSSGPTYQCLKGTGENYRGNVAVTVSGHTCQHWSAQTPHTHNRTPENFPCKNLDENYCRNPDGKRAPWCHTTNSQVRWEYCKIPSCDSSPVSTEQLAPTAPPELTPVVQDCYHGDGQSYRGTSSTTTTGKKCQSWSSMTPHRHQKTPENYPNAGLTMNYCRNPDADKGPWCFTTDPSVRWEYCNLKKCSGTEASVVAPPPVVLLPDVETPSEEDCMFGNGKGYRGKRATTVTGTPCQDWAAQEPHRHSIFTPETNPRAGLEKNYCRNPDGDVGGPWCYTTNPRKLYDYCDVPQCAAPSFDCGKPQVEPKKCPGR
In the next data set the target is thrombin (Homo sapiens (Human), UniProt P00734). The settings on record: read-out: IC50 Thrombin; substrate at Km concentration.
Data set [2] in a line: In vitro permeability, Caco-2 model. The format is in vitro ADME. To be noted: human, apical to basolateral, 37° C. As to the method:
In vitro permeability was determined using the Caco-2 model for oral absorption. The methodology was adapted from standard published methods (Wang Z, Hop C. E., Leung K. H. and Pang J. (2000) J Mass Spectrom 35(1); 71-76). The Caco-2 monolayers were established in a Biocoat™ HTS fibrillar collagen 24 well multiwell insert system (1.0 μm, PET membrane, Corning 354803) in which 200,000 cells were seeded into each insert and maintained over 3 days before being utilised in the permeability assay. For the assay, 50 μM test compound is added to the apical side of the inserts and incubated for 1 hour at 37° C. on a shaking platform (120 rpm). Apical to basolateral transport was determined by measuring the test article in both compartments by LCMS following the 1 hour incubation. The integrity of the Caco-2 monolayers was confirmed by two methods, (i) comparison of pre- and post-experiment transepithelial electrical resistance (TEER) and, (ii) assessment of Lucifer Yellow flux.

In data set [3] the test system is LPS-induced disseminated intravascular coagulation. The settings on record: cited from earlier work.
For a further data set, the system named is blood. To be noted: contacting blood with the inhibitor; cited from earlier work.
Data set [4] concerns intrinsic pathway of coagulation. The settings on record: in vitro; cited from earlier work.

Human Factor XIIa, sequence (P00748 373-615): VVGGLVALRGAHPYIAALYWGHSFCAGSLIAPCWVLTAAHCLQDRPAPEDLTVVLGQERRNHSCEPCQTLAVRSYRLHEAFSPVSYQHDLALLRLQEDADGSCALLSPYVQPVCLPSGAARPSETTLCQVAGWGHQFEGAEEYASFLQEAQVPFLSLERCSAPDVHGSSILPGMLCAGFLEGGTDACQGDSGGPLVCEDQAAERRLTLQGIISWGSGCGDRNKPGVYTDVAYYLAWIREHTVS
Human FXIa, sequence (P03951 388-625): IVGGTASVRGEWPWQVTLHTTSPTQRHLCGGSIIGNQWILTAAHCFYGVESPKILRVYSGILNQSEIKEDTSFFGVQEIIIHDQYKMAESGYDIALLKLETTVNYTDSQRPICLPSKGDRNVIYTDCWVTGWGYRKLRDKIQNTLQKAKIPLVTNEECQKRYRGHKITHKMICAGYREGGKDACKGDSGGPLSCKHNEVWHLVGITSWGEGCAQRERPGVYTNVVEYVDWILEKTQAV
Human FXIa, sequence (P03951 19-387 partner): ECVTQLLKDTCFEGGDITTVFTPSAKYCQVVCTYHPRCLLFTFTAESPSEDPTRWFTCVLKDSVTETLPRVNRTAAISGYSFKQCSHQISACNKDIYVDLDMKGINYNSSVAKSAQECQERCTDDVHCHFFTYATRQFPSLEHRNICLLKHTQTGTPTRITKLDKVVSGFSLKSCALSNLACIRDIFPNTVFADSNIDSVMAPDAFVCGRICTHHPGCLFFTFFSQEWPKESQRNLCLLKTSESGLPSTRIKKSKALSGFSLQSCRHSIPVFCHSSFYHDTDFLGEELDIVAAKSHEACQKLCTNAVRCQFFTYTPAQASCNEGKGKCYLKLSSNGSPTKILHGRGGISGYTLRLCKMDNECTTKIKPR
Experimental for plasmin: (§1) Human serine protease enzymes plasmin, thrombin and trypsin were assayed for enzymatic activity using an appropriate fluorogenic substrate. Protease activity was measured by monitoring the accumulation of liberated fluorescence from the substrate over 5 minutes. The linear rate of fluorescence increase per minute was expressed as percentage (%) activity. The Km for the cleavage of each substrate was determined by standard transformation of the Michaelis-Menten equation.
Experimental for thrombin: as §1
Experimental for trypsin: as §1

In the case of `N=C(N)c1ccc(CNC(=O)c2cnn(Cc3ccccc3)c2)cc1` [ASP-440], the “Effect on retinal vascular permeability and retinal blood flow abnormalities” value in the data set on diabetic rats is “ameliorated both retinal vascular permeability and retinal blood flow abnormalities”. Also, the Hematoma expansion result in the data set on rats is “reduced hematoma expansion”.

A word on the IC50: it is the concentration at which inhibition is half-maximal. On to `COCc1nn(Cc2ccc(Cn3cc(F)ccc3=O)cc2)cc1C(=O)NCc1nccc(OC)c1F` [Compound of Formula A, 1-({4-[(5-fluoro-2-oxopyridin-1-yl)methyl]phenyl}methyl)-N-[(3-fluoro-4-methoxypyridin-2-yl)methyl]-3-(methoxymethyl)pyrazole-4-carboxamide], for which the IC50 against Human KLK1, on Human FXIa, at Human Factor XIIa, against trypsin, on plasmin and at thrombin was over 40 µM each time. Further, the “% remaining at 60 minutes” value in [1] was 25%.

A word on the Papp: it is the rate of passage across a membrane or cell layer, normalised by area and donor concentration. For the compound `COCc1nn(Cc2ccc(Cn3ccccc3=O)cc2)cc1C(=O)NCc1nccc(OC)c1F` [Example 41 of WO2016/083820, N-[(3-fluoro-4-methoxypyridin-2-yl)methyl]-3-(methoxymethyl)-1-({4-[(2-oxopyridin-1-yl)methyl]phenyl}methyl)pyrazole-4-carboxamide], the IC50 against Human KLK1, against Human FXIa and against Human Factor XIIa was over 40 µM each time. This compound also yielded a Papp at 1 h, 50 μM in data set [2] of 9 ×10⁻⁶ cm/s.

Take `Cl.NCC1CCC(C(=O)N[C@@H](Cc2ccccc2)C(=O)Nc2ccc(CC(=O)O)cc2)CC1` (stereo partly shown) [PKSI-527]: the “Effect on platelet count, fibrinogen level and FDP level” value in data set [3] was “significantly suppressed the decrease in platelet count and fibrinogen level as well as the increase in FDP level”.

For Ecallantide, the “Activated clotting time (ACT)” value in the data set with blood was “increase in activated clotting time”. Also, in [4], the “Contact activated induced coagulation” value is given as “delay contact activated induced coagulation”.
